Residue numbers refer to the chain shown, from its start. Where a SMILES comes first, the peptide text is derived from it.
Key:
[1] = biological target: T1, hTAS1R2 + hTAS1R3 L798I^7.36 (Homo sapiens, UniProt Q7RTX0+Q8TE23, L798I); experiment: Calcium response (FLIPR), hTAS1R3 mutant coexpressed with hTAS1R2; assay type: cell-based; settings: variant L798I^7.36; for Emax: read-out: maximal signal (% of wt)
T1 construct: expressed in transfected cells; host or cells: HEK293T cells stably expressing G16Gust44
T1 sequence (Q8TE23 20-839): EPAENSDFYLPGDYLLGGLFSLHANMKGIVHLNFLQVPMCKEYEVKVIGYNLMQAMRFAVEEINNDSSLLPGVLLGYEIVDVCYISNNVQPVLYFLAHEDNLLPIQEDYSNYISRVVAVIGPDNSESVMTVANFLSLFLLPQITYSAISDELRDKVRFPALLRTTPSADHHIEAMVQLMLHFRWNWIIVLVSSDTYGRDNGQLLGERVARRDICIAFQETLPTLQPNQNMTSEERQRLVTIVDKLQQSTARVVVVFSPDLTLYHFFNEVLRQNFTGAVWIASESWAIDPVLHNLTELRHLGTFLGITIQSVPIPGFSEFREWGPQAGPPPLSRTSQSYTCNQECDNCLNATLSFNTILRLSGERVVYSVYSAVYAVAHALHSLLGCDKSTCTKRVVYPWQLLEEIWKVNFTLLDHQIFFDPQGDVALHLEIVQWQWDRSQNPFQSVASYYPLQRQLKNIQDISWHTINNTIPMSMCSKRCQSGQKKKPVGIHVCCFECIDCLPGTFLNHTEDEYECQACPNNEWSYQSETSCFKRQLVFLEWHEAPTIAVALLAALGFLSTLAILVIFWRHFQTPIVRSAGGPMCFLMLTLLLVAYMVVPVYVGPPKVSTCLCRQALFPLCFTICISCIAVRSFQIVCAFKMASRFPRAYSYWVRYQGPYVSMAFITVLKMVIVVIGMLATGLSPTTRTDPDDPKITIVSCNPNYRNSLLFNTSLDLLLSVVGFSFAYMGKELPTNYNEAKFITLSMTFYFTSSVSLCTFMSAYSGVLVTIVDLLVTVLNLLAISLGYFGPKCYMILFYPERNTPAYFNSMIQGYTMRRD
T1 sequence (Q7RTX0 21-852 L798I): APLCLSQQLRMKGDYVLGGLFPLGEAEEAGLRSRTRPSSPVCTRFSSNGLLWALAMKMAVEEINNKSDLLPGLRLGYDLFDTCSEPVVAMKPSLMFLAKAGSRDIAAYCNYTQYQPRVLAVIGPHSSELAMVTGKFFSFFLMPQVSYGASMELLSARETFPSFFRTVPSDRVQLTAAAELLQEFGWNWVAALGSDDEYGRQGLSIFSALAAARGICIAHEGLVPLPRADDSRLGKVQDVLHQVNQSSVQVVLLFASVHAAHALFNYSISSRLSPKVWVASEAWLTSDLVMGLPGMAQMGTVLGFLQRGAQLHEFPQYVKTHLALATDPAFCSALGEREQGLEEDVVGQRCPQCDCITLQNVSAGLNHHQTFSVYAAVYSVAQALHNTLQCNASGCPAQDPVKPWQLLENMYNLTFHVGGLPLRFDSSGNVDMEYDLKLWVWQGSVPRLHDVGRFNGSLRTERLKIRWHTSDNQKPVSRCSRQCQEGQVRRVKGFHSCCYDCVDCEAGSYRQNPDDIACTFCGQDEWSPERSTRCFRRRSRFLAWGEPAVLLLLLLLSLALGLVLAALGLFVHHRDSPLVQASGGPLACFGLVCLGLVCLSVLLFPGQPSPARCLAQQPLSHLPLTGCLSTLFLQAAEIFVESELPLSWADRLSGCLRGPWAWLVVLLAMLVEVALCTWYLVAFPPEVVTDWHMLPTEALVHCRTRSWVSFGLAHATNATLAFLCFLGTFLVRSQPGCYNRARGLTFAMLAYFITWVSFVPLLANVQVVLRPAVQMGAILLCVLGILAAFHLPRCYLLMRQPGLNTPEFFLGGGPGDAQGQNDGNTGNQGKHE
Outline: (§1)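 Calcium mobilization was measured by FLIPR in Fluo4-AM-loaded HEK293T cells coexpressing G16Gust44 with the tagged receptor pair. Signals had mock responses removed and were given as ΔF/F.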

[2] = biological target: T2, hTAS1R2 + hTAS1R3 A733V^5.46 (Homo sapiens, UniProt Q7RTX0+Q8TE23, A733V); experiment: as above; assay type: cell-based; settings: variant A733V^5.46; for Emax: read-out: maximal signal (% of wt)
T2 construct: expressed in transfected cells; host or cells: HEK293T cells stably expressing G16Gust44
T2 sequence (Q8TE23 20-839): T1 sequence (Q8TE23 20-839)
T2 sequence (Q7RTX0 21-852 A733V): T1 sequence (Q7RTX0 21-852 L798I) with A713V, I778L
Outline: as §1

| Compound | EC50 [1] [µM] | Emax [1] [%] | EC50 [2] [µM] | Emax [2] [%] |
| --- | --- | --- | --- | --- |
| COc1ccc(CCC(=O)c2c(O)cc(O[C@@H]3O[C@H](CO)[C@@H](O)[C@H](O)[C@H]3O[C@@H]3O[C@@H](C)[C@H](O)[C@@H](O)[C@H]3O)cc2O)cc1O [NHDC, neohesperidin dihydrochalcone] | 200 ± 200 | 66 ± 26 | 100 ± 20 | 133 ± 8 |
| COC(=O)[C@H](Cc1ccccc1)NC(=O)[C@@H](N)CC(=O)O [aspartame] (HELM PEPTIDE1{D.F.[CO[*:1]]}$$$$V2.0) | 900 ± 400 | 81 ± 5 | 1100 ± 300 | 92 ± 80 |
